Measured values: patent publication US5869662A, “Photochromic benzopyran compounds” (Vision-Ease Lens, Inc., priority 1997, dated 1999)

Tests used:
[1] = Maximum absorption wavelength (λmax) of the activated form in chloroform under ultraviolet irradiation; format: physicochemical; conditions: UV irradiation, 350 nm
Experimental: Two grams of the propargyl alcohol obtained in Step 1 were mixed with 1.25 grams of 2-hydroxydibenzofuran in 200 milliliters of benzene. Twenty milligrams of p-toluenesultonic acid were then added and the mixture was stirred under reflux for 8 hours. The resultant mixture was cooled and washed with 10% aqueous sodium hydroxide. The organic solvent (benzene) was removed using a rotary evaporator. The resulting material was dissolved in hexane and the resulting hexane solution was cooled to yield a recrystallized product.
The recrystallized product formed in Step 2 of Example 1; the 3-(4-biphenytyl)-3-phenyl-8-methoxy-3H-naphtho[2,1b]pyran formed in Comparative Example 1; and a purchased sample of 3,3-diphenyl-3H-naphtho-[2,1b]pyran (identified as Comparative Example 2) were each individually dissolved in chloroform in separate containers. These chloroform dissolved substances were then irradiated with ultraviolet light with a maximum wavelength of 350 manometers and measured for maximum absorption wavelength, λmax. The fade time, T1/2, was then determined for each of the irradiated substances. […] The maximum absorption wavelength and fade time determined for the irradiated substances of Example 1 and Comparative Examples 1-2 are presented in Table 1: […]

[2] = Becker patent; cited from earlier work
[3] = Fade time (T1/2) of the activated form in chloroform at room temperature; format: physicochemical; conditions: room temperature (72° F.), absorbance of activated form falls to one half of maximum after isolation from UV
Experimental: These chloroform dissolved substances were then irradiated with ultraviolet light with a maximum wavelength of 350 manometers and measured for maximum absorption wavelength, λmax. The fade time, T1/2, was then determined for each of the irradiated substances. The fade time for of the chloroform-dissolved substances is defined as the time interval, at room temperature (72° F.), for the absorbance of the activated form of each chloroform-dissolved substance to decrease to one half of the maximum absorbance, after the substance is isolated from the activating source of ultraviolet light.

Row | SMILES | maximum absorption wavelength, λmax (only or shorter-wavelength maximum) [1] [nanometers] | photochromic at room temperature [2] | fade time, T1/2 [3] [s]
1 | COc1ccc2c3c(ccc2c1)OC(c1ccccc1)(c1ccc(-c2ccccc2)cc1)C=C3 (stereo not shown) [Comparative Example 1, 3-(4-biphenylyl)-3-phenyl-8-methoxy-3H-naphtho[2,1b]pyran] | 484 |  | 
2 | C1=CC(c2ccccc2)(c2ccccc2)Oc2ccc3ccccc3c21 [Comparative Example 2, 3,3-diphenyl-3H-naphtho-[2,1b]pyran] | 434 | photochromic at room temperature | 13
